Source: PubChem BioAssay (NCI)
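Interpolation was linear, between the two tested concentrations surrounding the appropriate level; five concentrations were tested over 48 hours in 96-well plates. TGI denotes the concentration required for complete inhibition of growth.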

Legend:
Assay in all cases: DTP human tumour cell line panel, 48 h
NCI-H460 lung = test system: NCI-H460 lung
DMS 273 small cell lung = test system: DMS 273 small cell lung
UACC-62 melanoma = test system: UACC-62 melanoma
OVCAR-4 ovarian = test system: OVCAR-4 ovarian
EKVX NSCLC = test system: EKVX NSCLC
SF-295 CNS = test system: SF-295 CNS
HOP-92 NSCLC = test system: HOP-92 NSCLC
SNB-75 CNS = test system: SNB-75 CNS
SR leukemia = test system: SR leukemia
M19-MEL melanoma = test system: M19-MEL melanoma
786-0 renal = test system: 786-0 renal
RPMI-8226 leukemia = test system: RPMI-8226 leukemia
HOP-18 NSCLC = test system: HOP-18 NSCLC
HT29 colon = test system: HT29 colon
SK-MEL-2 melanoma = test system: SK-MEL-2 melanoma
XF 498 CNS = test system: XF 498 CNS
DLD-1 colon = test system: DLD-1 colon
SN12C renal = test system: SN12C renal
NCI-H23 lung = test system: NCI-H23 lung
OVCAR-5 ovarian = test system: OVCAR-5 ovarian
COLO 205 colon = test system: COLO 205 colon
SW-620 colon = test system: SW-620 colon
SNB-19 CNS = test system: SNB-19 CNS
LOX IMVI melanoma = test system: LOX IMVI melanoma
U251 CNS = test system: U251 CNS
HCT-15 colon = test system: HCT-15 colon
ACHN renal = test system: ACHN renal
HCT-116 colon = test system: HCT-116 colon
RXF 393 renal = test system: RXF 393 renal
MALME-3M melanoma = test system: MALME-3M melanoma
K-562 leukemia = test system: K-562 leukemia
OVCAR-8 ovarian = test system: OVCAR-8 ovarian
A498 renal = test system: A498 renal
OVCAR-3 ovarian = test system: OVCAR-3 ovarian
SK-MEL-28 melanoma = test system: SK-MEL-28 melanoma
KM12 colon = test system: KM12 colon
UACC-257 melanoma = test system: UACC-257 melanoma
CAKI-1 renal = test system: CAKI-1 renal
SF-268 CNS = test system: SF-268 CNS
A549 NSCLC = test system: A549 NSCLC
TK-10 renal = test system: TK-10 renal
SK-MEL-5 melanoma = test system: SK-MEL-5 melanoma
HOP-62 NSCLC = test system: HOP-62 NSCLC
KM20L2 colon = test system: KM20L2 colon
SF-539 CNS = test system: SF-539 CNS
IGROV1 ovarian = test system: IGROV1 ovarian
SNB-78 CNS = test system: SNB-78 CNS
DU-145 prostate = test system: DU-145 prostate
HL-60(TB) leukemia = test system: HL-60(TB) leukemia
NCI-H226 lung = test system: NCI-H226 lung
MCF7 breast = test system: MCF7 breast
SK-OV-3 ovarian = test system: SK-OV-3 ovarian
NCI-H522 lung = test system: NCI-H522 lung
HS 578T breast = test system: HS 578T breast
UO-31 renal = test system: UO-31 renal
M14 melanoma = test system: M14 melanoma
CCRF-CEM leukemia = test system: CCRF-CEM leukemia
NCI/ADR-RES ovarian = test system: NCI/ADR-RES ovarian
MDA-MB-231 breast = test system: MDA-MB-231 breast
BT-549 breast = test system: BT-549 breast
HCC-2998 colon = test system: HCC-2998 colon
T-47D breast = test system: T-47D breast
MOLT-4 leukemia = test system: MOLT-4 leukemia
MDA-MB-435 = test system: MDA-MB-435
PC-3 prostate = test system: PC-3 prostate
MDA-N = test system: MDA-N

Measured: TGI

COc1ccc(C(CCC(C)=O)C(=O)O)cc1OC (stereo unspecified)
not listed: DU-145 prostate | HL-60(TB) leukemia | NCI-H226 lung | MCF7 breast | SK-OV-3 ovarian | NCI-H522 lung | HS 578T breast | UO-31 renal | M14 melanoma | CCRF-CEM leukemia | NCI/ADR-RES ovarian | MDA-MB-231 breast | BT-549 breast | HCC-2998 colon | T-47D breast | MOLT-4 leukemia | MDA-MB-435 | PC-3 prostate | MDA-N
> 100 µM: all other assays above

CCCCNc1nc2ccccc2c2c1ncn2CC(C)C
not listed: DMS 273 small cell lung | M19-MEL melanoma | HOP-18 NSCLC | XF 498 CNS | DLD-1 colon | KM20L2 colon | SNB-78 CNS
> 100 µM: all other assays above
